In BindingDB's records for doi:10.1016/j.bmc.2010.11.049 (Bryn Mawr College, 2011) one finds IC50 data, which are given here for 45 molecules.

Broadly, the pIC50 is −log10 of the IC50, conventionally taken in molar units.

A short description of this assay: Inhibition of HIV1 YU2 gp120 binding to CD4 expressing Cf2Th-CD4/CCR5 cells assessed as inhibition of viral infection after 48 hrs.

Each structure is given as a SMILES string. pIC50: −log10 of the molar value. Bounds are passed on as bounds.

For the molecule `CC1CN(CCNC(=O)C(=O)Nc2ccc(Cl)c(F)c2)CC(C)O1` (stereo not given) [N1-(4-chloro-3-fluorophenyl)-N2-(2-(2,6-dimethylmorpholino)ethyl)oxalamide], the pIC50 is less than 4.00.
In the case of `CC1(C)CC(NC(=O)C(=O)Nc2ccc(Cl)c(F)c2)CC(C)(C)N1` [N1-(4-chloro-3-fluorophenyl)-N2-(2,2,6,6-tetramethylpiperidin-4-yl)oxalamide], the pIC50 was 4.13.
With `CCOc1cc(Cl)ccc1NC(=O)C(=O)NC1CC(C)(C)NC(C)(C)C1` [N1-(4-chloro-2-ethoxyphenyl)-N2-(2,2,6,6-tetramethylpiperidin-4-yl)oxalamide], the pIC50 was less than 4.00.
Take `CC1(C)CC(NC(=O)C(=O)Nc2ccc(-n3cc(CCCCCO)nn3)cc2)CC(C)(C)N1` [N1-(4-(4-(5-hydroxypentyl)-1H-1,2,3-triazol-1-yl)phenyl)-N2-(2,2,6,6-tetramethylpiperidin-4-yl)oxalamide]: the pIC50 was less than 4.00.
`CN1CCN(C(CNC(=O)C(=O)Nc2ccc(Cl)c(F)c2)c2cccs2)CC1` (stereo not given) [N1-(4-chloro-3-fluorophenyl)-N2-(2-(4-methylpiperazin-1-yl)-2-(thiophen-2-yl)ethyl)oxalamide]: the pIC50 was less than 4.00.
Consider `CC(C)N1CCC(NC(=O)C(=O)Nc2ccc(Cl)c(F)c2)CC1` [N1-(4-chloro-3-fluorophenyl)-N2-(1-isopropylpiperidin-4-yl)oxalamide], for which the pIC50 is less than 4.00.
The value for `O=C(NCC1COc2ccccc2O1)C(=O)Nc1ccc(Br)cc1` (stereo not given) [N1-(4-bromophenyl)-N2-((2,3-dihydrobenzo[b][1,4]dioxin-2-yl)methyl)oxalamide] was less than 4.00.
Consider `Cc1cccc(-c2cc(C(=O)Nc3ccc(Cl)cc3)[nH]n2)c1O` [N-(4-chlorophenyl)-5-(2-hydroxy-3-methylphenyl)-1H-pyrazole-3-carboxamide], for which the pIC50 is less than 4.00.
As for `CC1(C)CC(NC(=O)C(=O)Nc2ccc(-n3cc(-c4ccccc4)nn3)cc2)CC(C)(C)N1` [N1-(4-(4-phenyl-1H-1,2,3-triazol-1-yl)phenyl)-N2-(2,2,6,6-tetramethylpiperidin-4-yl)oxalamide], the pIC50 was less than 4.00.
The value for `O=C(CSCc1cc(=O)[nH][nH]1)Nc1ccc(Br)cc1` [N-(4-bromophenyl)-2-((5-hydroxy-1H-pyrazol-3-yl)methylthio)acetamide] was less than 4.00.
For `CC(C)(C)c1cc(CNC(=O)C(=O)Nc2ccc(Cl)c(F)c2)[nH]n1` [N1-((5-tert-butyl-1H-pyrazol-3-yl)methyl)-N2-(4-chloro-3-fluorophenyl)oxalamide], the pIC50 is less than 4.00.
Take `CC(C)COc1cc(Cl)ccc1NC(=O)C(=O)NC1CC(C)(C)NC(C)(C)C1` [N1-(4-chloro-2-isobutoxyphenyl)-N2-(2,2,6,6-tetramethylpiperidin-4-yl)oxalamide]: the pIC50 was less than 4.00.
With `Cc1nn(C)cc1CN(C)CC(=O)Nc1ccc(Br)cc1` [N-(4-bromophenyl)-2-(((1,3-dimethyl-1H-pyrazol-4-yl)methyl)(methyl)amino)acetamide] the figure was less than 4.00; with `O=C(Nc1ccc(Cl)c(F)c1)C(=O)NC1CCc2[nH]ncc2C1` (stereo not given) [N1-(4-chloro-3-fluorophenyl)-N2-(4,5,6,7-tetrahydro-1H-indazol-5-yl)oxalamide], less than 4.00.
Turning to `C[C@H](Sc1nc(N)cc(N)n1)C(=O)Nc1ccc(Cl)cc1` [(S)-N-(4-chlorophenyl)-2-(4,6-diaminopyrimidin-2-ylthio)propanamide], the pIC50 was less than 4.00.
Regarding `O=C(Nc1ccc(Cl)c(F)c1)C(=O)NC1CCNC2(CCC2)C1` (stereo not given) [N1-(4-chloro-3-fluorophenyl)-N2-(5-azaspiro[3.5]nonan-8-yl)oxalamide], the negative logarithm of the IC50 (pIC50) is 4.41.
For `O=C(COc1ccc(Cl)cc1)Nc1ccc2[nH]c(=O)[nH]c2c1` [2-(4-chlorophenoxy)-N-(2-oxo-2,3-dihydro-1H-benzo[d]imidazol-5-yl)acetamide], the pIC50 is less than 4.00.
With `CC1(C)CC(NC(=O)CCC(=O)Nc2ccc(Br)cc2)CC(C)(C)N1` [N1-(4-bromophenyl)-N4-(2,2,6,6-tetramethylpiperidin-4-yl)succinamide] the figure was less than 4.00; with `CC(NC(=O)C(=O)Nc1ccc(Cl)c(F)c1)c1ccc(S(N)(=O)=O)cc1` (stereo not given) [N1-(4-chloro-3-fluorophenyl)-N2-(1-(4-sulfamoylphenyl)ethyl)oxalamide], less than 4.00; with `CC1(C)CC(NC(=O)C(=O)Nc2ccc(Cl)cc2C(F)(F)F)CC(C)(C)N1` [N1-(4-chloro-2-(trifluoromethyl)phenyl)-N2-(2,2,6,6-tetramethylpiperidin-4-yl)oxalamide], less than 4.00.
Regarding `O=C(NCc1ccco1)C(=O)Nc1ccc(Br)cc1` [N1-(4-bromophenyl)-N2-(furan-2-ylmethyl)oxalamide], the pIC50 is less than 4.00.
As for `O=C(NCC1CCCN(CCO)C1)C(=O)Nc1ccc(Cl)c(F)c1` (stereo not given) [N1-(4-chloro-3-fluorophenyl)-N2-((1-(2-hydroxyethyl)piperidin-3-yl)methyl)oxalamide], the pIC50 was 4.56.
The value for `C[C@@H]1CN(CCC(=O)Nc2ccc(Br)cc2)C[C@H](C)O1` [(2R,6S)-4-(3-(4-bromophenylamino)-3-oxopropyl)-2,6-dimethylmorpholin-4-ium] was less than 4.00; that for `CC1(C)CC(NC(=O)C(=O)Nc2ccc(Cl)cc2Cl)CC(C)(C)N1` [N1-(2,4-dichlorophenyl)-N2-(2,2,6,6-tetramethylpiperidin-4-yl)oxalamide] was less than 4.00; that for `Cc1ccc(C(C)C)c(OCC(=O)NNC(=O)Nc2ccc(Cl)cc2)c1` [N-(4-chlorophenyl)-2-(2-(2-isopropyl-5-methylphenoxy)acetyl)hydrazinecarboxamide] was less than 4.00.
Take `O=C(Nc1ccc(Cl)c(F)c1)C(=O)N[C@H]1CCN(Cc2ccccc2)C1` [(S)-N1-(1-benzylpyrrolidin-3-yl)-N2-(4-chloro-3-fluorophenyl)oxalamide]: the pIC50 was less than 4.00.
The value for `CN1CCN(C(CNC(=O)C(=O)Nc2ccc(Cl)c(F)c2)c2ccccc2Cl)CC1` (stereo not given) [N1-(4-chloro-3-fluorophenyl)-N2-(2-(2-chlorophenyl)-2-(4-methylpiperazin-1-yl)ethyl)oxalamide] was 4.13.
The value for `CC1(C)OC(=O)N(CCC(=O)Nc2ccc(Cl)cc2)[C@@]1(C)O` [(S)-N-(4-chlorophenyl)-3-(4-hydroxy-4,5,5-trimethyl-2-oxooxazolidin-3-yl)propanamide] was less than 4.00.
With `C[C@@H]1CCC[C@H](C)N1CCNC(=O)C(=O)Nc1ccc(Cl)c(F)c1` [N1-(4-chloro-3-fluorophenyl)-N2-(2-((2S,6R)-2,6-dimethylpiperidin-1-yl)ethyl)oxalamide], the pIC50 is 4.12.
The value for `CC1(C)CC(NC(=O)C(=O)Nc2ccc(N=[N+]=[N-])cc2)CC(C)(C)N1` [N1-(4-azidophenyl)-N2-(2,2,6,6-tetramethylpiperidin-4-yl)oxalamide] was less than 4.00; that for `CC1(C)CC(=NNC(=O)c2[nH]nc3c2CCCC3)CC(C)(C)N1` [2,2,6,6-tetramethyl-4-(2-(4,5,6,7-tetrahydro-1H-indazole-3-carbonyl)hydrazono)piperidinium] was less than 4.00.
On to `Cc1n[nH]c(C)c1CNC(=O)C(=O)Nc1ccc(Cl)c(F)c1` [N1-(4-chloro-3-fluorophenyl)-N2-((3,5-dimethyl-1H-pyrazol-4-yl)methyl)oxalamide], for which the negative logarithm of the IC50 (pIC50) is 4.19.
As for `CC(C)c1ccccc1NC(=O)C(=O)NC1CC(C)(C)NC(C)(C)C1` [N1-(2-isopropylphenyl)-N2-(2,2,6,6-tetramethylpiperidin-4-yl)oxalamide], the pIC50 is less than 4.00.
`CN1CCC(CNC(=O)C(=O)Nc2ccc(Cl)c(F)c2)CC1` [N1-(4-chloro-3-fluorophenyl)-N2-((1-methylpiperidin-4-yl)methyl)oxalamide]: the pIC50 is less than 4.00.
For the molecule `O=C(NC[C@@]12CCC[C@@H]1CNC2)C(=O)Nc1ccc(Cl)c(F)c1` [N1-(4-chloro-3-fluorophenyl)-N2-(((3aS,6aS)-octahydrocyclopenta[c]pyrrol-3a-yl)methyl)oxalamide], the pIC50 is 4.17.
Consider `CCN(CC)C(CNC(=O)C(=O)Nc1ccc(Cl)c(F)c1)CC(C)C` (stereo not given) [N1-(4-chloro-3-fluorophenyl)-N2-(2-(diethylamino)-4-methylpentyl)oxalamide], for which the pIC50 is less than 4.00.
On to `CC1(C)NC(=O)N(C[C@H](O)COc2ccc(Cl)cc2)C1=O` [(S)-3-(3-(4-chlorophenoxy)-2-hydroxypropyl)-5,5-dimethylimidazolidine-2,4-dione], for which the pIC50 is less than 4.00.
The value for `O=C(Nc1ccc(Cl)cc1)c1cc2c([nH]c1=O)CCCC2` [N-(4-chlorophenyl)-2-oxo-1,2,5,6,7,8-hexahydroquinoline-3-carboxamide] was less than 4.00; that for `CN1CCC(NC(=O)Nc2ccc(Cl)cc2Cl)CC1` [4-(3-(2,4-dichlorophenyl)ureido)-1-methylpiperidinium] was less than 4.00.
For the molecule `CC1(C)Cc2c(sc(NC(=O)C(=O)Nc3ccc(Cl)c(F)c3)c2C#N)C(C)(C)N1` [N1-(4-chloro-3-fluorophenyl)-N2-(3-cyano-5,5,7,7-tetramethyl-4,5,6,7-tetrahydrothieno[2,3-c]pyridin-2-yl)oxalamide], the pIC50 is less than 4.00.
In the case of `CC1(C)CC(NC(=O)C(=O)Nc2c[nH]c3ncccc23)CC(C)(C)N1` [N1-(1H-pyrrolo[2,3-b]pyridin-3-yl)-N2-(2,2,6,6-tetramethylpiperidin-4-yl)oxalamide], the pIC50 is less than 4.00.
The value for `CC(C)c1cccc(NC(=O)C(=O)NC2CC(C)(C)NC(C)(C)C2)c1` [N1-(3-isopropylphenyl)-N2-(2,2,6,6-tetramethylpiperidin-4-yl)oxalamide] was less than 4.00.
The value for `O=C(Nc1ccc(Cl)c(F)c1)C(=O)Nc1cnn2c1NCCC2` [N1-(4-chloro-3-fluorophenyl)-N2-(4,5,6,7-tetrahydropyrazolo[1,5-a]pyrimidin-3-yl)oxalamide] was less than 4.00.
The value for `CC(C)C1CCN(CCC(=O)Nc2ccc(Br)cc2)CC1` [trans-1-(3-(4-bromophenylamino)-3-oxopropyl)-4-isopropylpiperidinium] was less than 4.00.
With `CC(NC(=O)C(=O)Nc1ccc(Cl)c(F)c1)C(c1ccccc1Cl)N1CCOCC1` (stereo not given) [N1-(4-chloro-3-fluorophenyl)-N2-(1-(2-chlorophenyl)-1-morpholinopropan-2-yl)oxalamide], the pIC50 is less than 4.00.
